Tests used:
[1] = target: T1, Alpha-2A adrenergic receptor (Homo sapiens, UniProt P08913); format: cell membranes, Sf9, Membrane; settings: for Ki: read-out: Ki; as to all read-outs here: in other assays of this panel Not Active means under 50% inhibition at 10 µM
T1 sequence (P08913 whole entry): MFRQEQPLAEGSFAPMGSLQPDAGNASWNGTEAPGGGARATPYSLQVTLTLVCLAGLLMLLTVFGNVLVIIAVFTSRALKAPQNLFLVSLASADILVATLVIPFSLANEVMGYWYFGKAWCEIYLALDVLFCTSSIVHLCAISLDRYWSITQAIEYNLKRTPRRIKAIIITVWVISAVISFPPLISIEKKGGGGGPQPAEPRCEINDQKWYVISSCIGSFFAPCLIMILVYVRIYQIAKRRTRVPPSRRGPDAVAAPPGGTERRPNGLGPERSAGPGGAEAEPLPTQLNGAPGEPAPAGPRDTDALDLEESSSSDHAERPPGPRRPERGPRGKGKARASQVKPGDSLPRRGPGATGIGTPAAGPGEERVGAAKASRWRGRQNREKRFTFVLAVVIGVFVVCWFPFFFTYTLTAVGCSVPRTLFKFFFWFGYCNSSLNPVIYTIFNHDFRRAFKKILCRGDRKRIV

[2] = target: T2, Alpha-2C adrenergic receptor (Homo sapiens, UniProt P18825); experiment: DRUGMATRIX: Adrenergic Alpha-2C radioligand binding (ligand: [3H] MK-912); format: cell membranes, Sf9, Membrane; settings: sf9
T2 sequence (P18825 whole entry): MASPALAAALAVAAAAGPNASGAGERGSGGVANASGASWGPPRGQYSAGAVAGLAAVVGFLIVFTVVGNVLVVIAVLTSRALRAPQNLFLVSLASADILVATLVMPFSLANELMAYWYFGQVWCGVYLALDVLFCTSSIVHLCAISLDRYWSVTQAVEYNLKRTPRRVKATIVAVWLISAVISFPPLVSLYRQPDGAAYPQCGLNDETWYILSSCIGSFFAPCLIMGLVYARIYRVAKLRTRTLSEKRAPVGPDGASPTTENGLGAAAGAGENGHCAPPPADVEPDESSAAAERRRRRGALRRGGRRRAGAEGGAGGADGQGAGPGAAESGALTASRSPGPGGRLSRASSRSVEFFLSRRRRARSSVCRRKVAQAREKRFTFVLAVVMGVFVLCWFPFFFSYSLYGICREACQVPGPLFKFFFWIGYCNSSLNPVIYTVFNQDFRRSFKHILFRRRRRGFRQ

[3] = target: Tyrosine-protein kinase Fyn (Homo sapiens, UniProt P06241); experiment: biochemical; format: cell-based, Insect cells;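 also: enzymatic inhibition of Fyn kinase activity measured with Poly(Glu:Tyr) as the phosphorylation substrate; in other assays of this panel Not Active means under 50% inhibition at 10 µM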
Chain of Tyrosine-protein kinase Fyn (P06241 whole entry): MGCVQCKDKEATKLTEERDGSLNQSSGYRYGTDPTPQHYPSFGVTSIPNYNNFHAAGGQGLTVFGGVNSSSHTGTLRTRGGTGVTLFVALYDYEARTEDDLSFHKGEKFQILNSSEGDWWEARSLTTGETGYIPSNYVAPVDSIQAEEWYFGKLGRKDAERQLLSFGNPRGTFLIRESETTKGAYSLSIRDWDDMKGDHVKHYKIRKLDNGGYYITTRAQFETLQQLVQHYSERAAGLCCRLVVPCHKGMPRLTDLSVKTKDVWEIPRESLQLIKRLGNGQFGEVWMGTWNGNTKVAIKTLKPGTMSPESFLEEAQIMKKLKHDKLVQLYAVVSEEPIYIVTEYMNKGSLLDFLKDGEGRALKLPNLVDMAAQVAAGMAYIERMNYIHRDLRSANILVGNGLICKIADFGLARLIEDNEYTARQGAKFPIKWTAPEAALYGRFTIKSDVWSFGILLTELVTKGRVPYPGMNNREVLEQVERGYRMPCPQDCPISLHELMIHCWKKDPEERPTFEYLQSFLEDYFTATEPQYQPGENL

[4] = DRUGMATRIX: Purinergic P2X radioligand binding (ligand: [3H] alpha, beta-Methylene-ATP); format: cell membranes, Oryctolagus cuniculus, New Zealand albino, Urinary bladder, Membrane; settings: Not Active = under 50% inhibition at 10 µM
Estrogen receptor beta = Estrogen receptor beta (Homo sapiens, UniProt Q92731); settings: sf9; also: in other assays of this panel Not Active means under 50% inhibition at 10 µM
Chain of Estrogen receptor beta (Q92731 whole entry): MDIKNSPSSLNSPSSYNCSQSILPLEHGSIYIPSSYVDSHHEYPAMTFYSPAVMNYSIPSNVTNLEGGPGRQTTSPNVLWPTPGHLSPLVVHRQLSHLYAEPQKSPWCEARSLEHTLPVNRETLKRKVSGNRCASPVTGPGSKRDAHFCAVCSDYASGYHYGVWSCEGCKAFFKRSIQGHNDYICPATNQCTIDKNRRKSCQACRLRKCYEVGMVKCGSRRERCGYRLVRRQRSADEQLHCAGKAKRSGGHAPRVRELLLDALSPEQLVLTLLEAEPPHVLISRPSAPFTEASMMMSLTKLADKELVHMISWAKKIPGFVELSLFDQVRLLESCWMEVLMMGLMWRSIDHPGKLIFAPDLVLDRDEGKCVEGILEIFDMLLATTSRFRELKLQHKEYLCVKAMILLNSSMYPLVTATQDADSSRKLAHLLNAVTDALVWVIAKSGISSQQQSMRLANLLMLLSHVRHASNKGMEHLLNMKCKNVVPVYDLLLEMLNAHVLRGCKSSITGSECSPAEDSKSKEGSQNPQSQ

| Structure (SMILES) | IC50 ([1]; sf9) | IC50 [2] | IC50 ([3]; insect cells) | IC50 [4] | Ki [4] | IC50 (Estrogen receptor beta) | IC50 ([1]; read-out: IC50) [µM] | Ki [1] [µM] | IC50 ([3]; read-out: IC50) [µM] |
| --- | --- | --- | --- | --- | --- | --- | --- | --- | --- |
| COc1cc(N)nc2[nH]c(-c3ccc(F)cc3)c(-c3ccncc3)c12 | Not Active | Not Active | Not Active | Not Active | Not Active | Not Active |  |  |  |
| CNS(=O)(=O)Cc1ccc2[nH]cc(CCN(C)C)c2c1 | Not Active | Not Active | Not Active | Not Active | Not Active | Not Active |  |  |  |
| CCCc1nn(C)c2c(=O)[nH]c(-c3cc(S(=O)(=O)N4CCN(C)CC4)ccc3OCC)nc12 | Not Active | Not Active | Not Active | Not Active | Not Active |  |  |  |  |
| COc1ccc(/C=C/C(=O)Nc2ccccc2C(=O)O)cc1OC | Not Active | Not Active | Not Active | Not Active | Not Active | Not Active |  |  |  |
| CCOC(N)=O | Not Active | Not Active | Not Active | Not Active | Not Active |  |  |  |  |
| CC(=O)Nc1nnc(S(N)(=O)=O)s1 [ACETAZOLAMIDE] | Not Active | Not Active | Not Active |  |  | Not Active |  |  |  |
| O=c1[nH]c2ccccc2n1CCCN1CCC(n2c(=O)[nH]c3cc(Cl)ccc32)CC1 [DOMPERIDONE] |  |  | Not Active |  |  | Not Active |  |  |  |
| CC1=C(CC(=O)O)c2cc(F)ccc2/C1=C\c1ccc(S(C)(=O)=O)cc1 [EXISULIND] | Not Active | Not Active | Not Active | Not Active | Not Active | Not Active |  |  |  |
| CC(C)OC(=O)C(C)(C)Oc1ccc(C(=O)c2ccc(Cl)cc2)cc1 [FENOFIBRATE] | Not Active | Not Active | Not Active |  |  | Not Active |  |  |  |
| OCCN1CCN(CCCN2c3ccccc3Sc3ccc(C(F)(F)F)cc32)CC1 [FLUPHENAZINE] |  |  |  |  |  | Not Active | 0.215 | 0.08 | 7.99 |
| CN1C2CCCC1CC(NC(=O)c1nn(C)c3ccccc13)C2 (centres undefined) [GRANISETRON] | Not Active | Not Active | Not Active |  |  | Not Active |  |  |  |
| Nc1nc2c(c(=O)[nH]1)N(C=O)C(CNc1ccc(C(=O)N[C@@H](CCC(=O)O)C(=O)O)cc1)CN2 (some centres undefined) [LEUCOVORIN] | Not Active | Not Active | Not Active | Not Active | Not Active | Not Active |  |  |  |
| C[C@@H](O)[C@H]1C(=O)N2C(C(=O)O)=C(S[C@@H]3CN[C@H](C(=O)N(C)C)C3)[C@H](C)[C@H]12 [MEROPENEM] | Not Active | Not Active | Not Active | Not Active | Not Active | Not Active |  |  |  |
| CC[C@@H](CO)NC(=O)[C@@H]1C=C2c3cccc4c3c(cn4C)C[C@H]2N(C)C1 [METHYSERGIDE] |  | Not Active | Not Active |  |  | Not Active | 1.63 | 0.611 |  |
| CCN(CC)CC#CCOC(=O)C(O)(c1ccccc1)C1CCCCC1 (centres undefined) [OXYBUTYNIN] | Not Active | Not Active | Not Active |  |  | Not Active |  |  |  |
| O=P(O)(O)C(O)(Cc1cccnc1)P(=O)(O)O [RISEDRONIC ACID] | Not Active | Not Active | Not Active | Not Active | Not Active |  |  |  |  |
| CN(CCOc1ccc(CC2SC(=O)NC2=O)cc1)c1ccccn1 (centres undefined) [ROSIGLITAZONE] | Not Active | Not Active | Not Active | Not Active | Not Active | Not Active |  |  |  |
| C=C(C)[C@H]1Cc2c(ccc3c2O[C@@H]2COc4cc(OC)c(OC)cc4[C@@H]2C3=O)O1 [ROTENONE] | Not Active | Not Active | Not Active | Not Active | Not Active |  |  |  |  |
